From US7691838B2, “Method for treating diseases using HSP90-inhibiting agents in combination with antimitotics” (Kosan Biosciences Incorporated, priority 2003, dated 2010)
Like-named read-outs stand apart in the source and are kept apart here.

What was measured:
[1] = on administration; background statement; cited from earlier work
[2] = clinical trials, cited from earlier work
breast cancer cells = settings: cited from earlier work
[3] = test system: ErbB2-expressing cancer cells; settings: ErbB2-expressing cancer cells in vitro; Citri et al. 2002; cited from earlier work
[4] = test system: SKBr-3 cells (human breast cancer cells); assay: MTS cell viability drug combination assay, combination index, SKBr-3; format: cell-based; settings: CI<1 synergism
Experimental: (§1) Human colon adenocarcinoma cell line, DLD-1, and human breast adenocarcinoma cell line, SKBr-3, were obtained from American Type Culture Collection (manassas, Va.). DLD-1 cells were maintained in RPMI 1640 medium supplemented with 10% fetal bovine serum, and SKBr-3 cells were cultured in McCoy's 5a medium supplemented with 10% fetal bovine serum. 17-DMAG and 17-AAG were obtained using published procedures. Other cytotoxic agents were purchased commercially from suppliers such as Sigma Chemical Co. (St. Louis, Mo.) and Sequoia Research Products (Oxford, UK).
(§2) Cells were seeded in duplicate in 96-well microtiter plates at a density of 5,000 cells per well and allowed to attach overnight. Cells were treated with 17-AAG or 17-DMAG and the corresponding antimitotic at varying concentrations, ranging from 0.5 picomolar (“pM”) to 50 micromolar (“μM”), for 3 days. Cell viability was determined using the MTS assay (Promega). For the drug combination assay, cells were seeded in duplicate in 96-well plates (5,000 cells/well). […] Based on the IC50 values of each individual drug, combined drug treatment was designed at constant ratios of two drugs, i.e., equivalent to the ratio of their IC50. Two treatment schedules were used: In one schedule, the cells were exposed to 24 hours of 17-AAG or 17-DMAG. The drug was then added to the cells and incubated for 48 hours. In another schedule, cells were exposed to the drug alone for 24 hours followed by addition of 17-AAG or 17-DMAG for 48 hours. Cell viability was determined by the MTS assay.
(§3) Synergism, additivity or antagonism was determined by median effect analysis using the combination index (CI) calculated using Calcusyn (Biosoft, Cambridge, UK). The combination index is defined as follows: CI=[D]1/[Dx]1+[D]2/[Dx]2
(§4) The quantities [D]1 and [D]2 represent the concentrations of the first and second drug, respectively, that in combination provide a response of x % in the assay. The quantities [Dx]1 and [Dx]2 represent the concentrations of the first and second drug, respectively, that when used alone provide a response of x % in the assay. Values of CI<1, CI=1, and CI>1 indicated drug-drug synergism, additivity, and antagonism respectively (Chou and Talalay 1984). The “enhancing” effect of two drugs can also be determined.

[5] = test system: DLD-1 cells (human colorectal cancer cells); assay: MTS cell viability drug combination assay, combination index, DLD-1; format: cell-based; settings: CI<1 synergism
Experimental: as §1, §2, §3, §4
“Pre-administration” refers to the administration of 17-AAG to the cells before the administration of antimitotic; “post-administration” refers to the administration of 17-AAG to the cells after the administration of antimitotic.

[6] = 17-AAG Post-Administration (antimitotic 24 h, then 17-AAG 48 h)
[7] = 17-AAG Pre-Administration (17-AAG 24 h, then antimitotic 48 h)

Row | SMILES | CI value (combination index) of antimitotic with 17-AAG [4, 6] | CI value (combination index) of antimitotic with 17-AAG [4, 7] | CI value (combination index) of antimitotic with 17-AAG [5, 6] | CI value (combination index) of antimitotic with 17-AAG [5, 7] | other results
1 | C=CCNC1=C2C[C@@H](C)C[C@H](OC)[C@H](O)[C@@H](C)/C=C(\C)[C@H](OC(N)=O)[C@@H](OC)/C=C\C=C(/C)C(=O)NC(=CC1=O)C2=O [17-AAG, 17-allylamino-17-desmethoxygeldanamycin] |  |  |  |  | hepatotoxicity [1]: reduced hepatotoxicity; MTD (maximum tolerated dose) ([2]; daily×5 schedule): about 40 mg/m^2; MTD (maximum tolerated dose) ([2]; once-weekly regimen): about 308 mg/m^2; MTD (maximum tolerated dose) ([2]; twice-weekly regimen): about 220 mg/m^2; sensitization of cells to cytotoxic effects of other drugs (breast cancer cells; cells in culture, Münster et al. 2001): sensitizes cells in culture to the cytotoxic effects of Paclitaxel and doxorubicin
2 | C=CC(=O)Nc1cc2c(Nc3ccc(F)c(Cl)c3)ncnc2cc1OCCCN1CCOCC1 [CI-1033] |  |  |  |  | combination effect on growth, with anti-ErB2 antibody Herceptin [3]: antagonistic effect
3 | CC(=O)O[C@@]12CO[C@@H]1C[C@H](O)[C@@]1(C)C(=O)[C@H](O)C3=C(C)[C@@H](OC(=O)[C@H](O)[C@@H](NC(=O)OC(C)(C)C)c4ccccc4)C[C@@](O)([C@@H](OC(=O)c4ccccc4)[C@H]21)C3(C)C [Docetaxel, docetaxel] | 0.59 ± 0.26 | 0.53 ± 0.11 | 0.29 ± 0.12 | 0.79 ± 0.15 | 
4 | C/C1=C/C[C@@H](/C(C)=C/c2csc(C)n2)OC(=O)C[C@H](O)C(C)(C)C(=O)[C@H](C)[C@@H](O)[C@@H](C)CCC1 [Epothilone D, epothilone D] | 0.58 ± 0.009 | 0.72 ± 0.07 | 0.61 ± 0.12 | 0.84 ± 0.06 | 
5 | CC[C@]1(O)C[C@@H]2CN(CCc3c([nH]c4ccccc34)[C@@](C(=O)OC)(c3cc4c(cc3OC)N(C)[C@H]3[C@@](O)(C(=O)OC)[C@H](OC(C)=O)[C@]5(CC)C=CCN6CC[C@]43[C@@H]65)C2)C1 [Vinblastine, vinblastine] | 0.68 ± 0.41 | 0.39 ± 0.03 | 0.38 ± 0.11 | 0.92 ± 0.3 | 
6 | CC[C@]1(O)C[C@H]2CN(CCc3c([nH]c4ccccc34)[C@@](C(=O)OC)(c3cc4c(cc3OC)N(C=O)[C@H]3[C@@](O)(C(=O)OC)[C@H](OC(C)=O)[C@]5(CC)C=CCN6CC[C@]43[C@@H]65)C2)C1 [Vincristine, vincristine] | 0.99 ± 0.73 | 0.67 ± 0.37 | 0.42 ± 0.08 | 0.96 ± 0.3 | 
7 | CC[C@]1(O)C[C@@H]2CN(CCc3c([nH]c4ccccc34)[C@@](C(=O)OC)(c3cc4c(cc3OC)N(C)[C@H]3[C@@](O)(C(N)=O)[C@H](O)[C@]5(CC)C=CCN6CC[C@]43[C@@H]65)C2)C1 [Vindesine, vindesine] |  |  | 0.68 ± 0.08 | 0.91 ± 0.41 | 
8 | COC1=C2C[C@@H](C)C[C@H](OC)[C@H](O)[C@@H](C)/C=C(\C)[C@H](OC(N)=O)[C@@H](OC)/C=C\C=C(/C)C(=O)NC(=CC1=O)C2=O [geldanamycin, Geldanamycin] |  |  |  |  | combination effect on growth, co-administration with CI-1033 [3]: additive effect; hepatotoxicity [1]: unacceptable hepatotoxicity
9 | CC(=O)O[C@H]1C(=O)[C@@]2(C)[C@H]([C@H](OC(=O)c3ccccc3)[C@]3(O)C[C@H](OC(=O)[C@H](O)[C@@H](NC(=O)c4ccccc4)c4ccccc4)C(C)=C1C3(C)C)[C@]1(OC(C)=O)CO[C@@H]1C[C@@H]2O [paclitaxel] |  |  |  |  | apoptosis, combination with 17-AAG (breast cancer cells; coincident treatment with paclitaxel and 17-AAG, retinoblastoma protein-producing cells): synergistic apoptosis; apoptosis, combination with 17-AAG (breast cancer cells; paclitaxel followed by 17-AAG 4 hours later): synergistic effect similar to coincident treatment; apoptosis, combination with 17-AAG (breast cancer cells; pretreatment with 17-AAG followed by paclitaxel): abrogation of apoptosis
